Values after ≈ are worked out from the molar mass of the structure shown. Like-named read-outs stand apart in the source and are kept apart here.
How the values were obtained:
poliovirus (PV type 3) = experiment: microbe, parasite or virus in culture; format: cell-based; conditions: Enterovirus C, read-out: PV-3 EC50
poliovirus (PV type 1) = experiment: microbe, parasite or virus in culture; format: cell-based; conditions: Enterovirus C, read-out: PV-1 EC50
in vitro [1] = conditions: human, PV CC50
in vitro [2] = conditions: African green monkey, PV CC50
[3] = Cytotoxicity in HCV-1a replicon cells, Promega CellTiter-Glo cell viability assay
[4] = test system: genotype 1a H-77 replicon; experiment: HCV-1a replicon potency in RLuc-1 cells, bioluminescence; format: cell-based; conditions: for HCV-1a Replicon Selectivity Index: CC50/EC50, genotype 1a replicon; for EC50: Hepatitis C virus, 72 h, read-out: HCV-1a Replicon EC50 (μM)
poliovirus (PV type 2) = experiment: microbe, parasite or virus in culture; format: cell-based; conditions: Enterovirus C, read-out: PV-2 EC50
[5] = Cytostatic/cytotoxic effect in Hela Rh cells (rhinovirus methodology, MTS); conditions: human, CC50, Hela Rh cells
hRV-41 = experiment: Rhinovirus type 41 antiviral assay in Hela Rh cells, MTS readout; format: cell-based, Human rhinovirus; conditions: Human rhinovirus sp., HRV41, HeLa Rh, Hela Rh cells; read-out: hRV-41 EC50
hRV-72 = experiment: Rhinovirus type 72 antiviral assay in Hela Rh cells, MTS readout; format: cell-based, Human rhinovirus; conditions: Human rhinovirus sp., HRV72, HeLa Rh, Hela Rh cells; read-out: hRV-72 EC50
hRV-15 = experiment: Rhinovirus type 15 antiviral assay in Hela Rh cells, MTS readout; format: cell-based, Human rhinovirus; conditions: Human rhinovirus sp., HRV15, HeLa Rh, Hela Rh cells; read-out: hRV-15 EC50
hRV-2 = experiment: Rhinovirus type 2 antiviral assay in Hela Rh cells, MTS readout; format: cell-based, Human rhinovirus; conditions: Rhinovirus A, HRV2, HeLa Rh, Hela Rh cells; read-out: hRV-2 EC50
hRV-14 = experiment: Rhinovirus type 14 antiviral assay in Hela Rh cells, MTS readout; format: cell-based, Human rhinovirus; conditions: Rhinovirus B, HRV14, HeLa Rh, Hela Rh cells; read-out: hRV-14 EC50
hRV-70 = experiment: Rhinovirus type 70 antiviral assay in Hela Rh cells, MTS readout; format: cell-based, Human rhinovirus; conditions: Human rhinovirus sp., HRV70, HeLa Rh, Hela Rh cells; read-out: hRV-70 EC50
hRV-39 = experiment: Rhinovirus type 39 antiviral assay in Hela Rh cells, MTS readout; format: cell-based, Human rhinovirus; conditions: Human rhinovirus sp., HRV39, HeLa Rh, Hela Rh cells; read-out: hRV-39 EC50
hRV-63 = experiment: Rhinovirus type 63 antiviral assay in Hela Rh cells, MTS readout; format: cell-based, Human rhinovirus; conditions: Human rhinovirus sp., HRV63, HeLa Rh, Hela Rh cells; read-out: hRV-63 EC50
hRV-29 = experiment: Rhinovirus type 29 antiviral assay in Hela Rh cells, MTS readout; format: cell-based; conditions: Human rhinovirus sp., HRV29, HeLa Rh, Hela Rh cells; read-out: hRV-29 EC50
hRV-9 = experiment: Rhinovirus type 9 antiviral assay in Hela Rh cells, MTS readout; format: cell-based, Human rhinovirus; conditions: Human rhinovirus sp., HRV9, HeLa Rh, Hela Rh cells; read-out: hRV-9 EC50
hRV-85 = experiment: Rhinovirus type 85 antiviral assay in Hela Rh cells, MTS readout; format: cell-based, Human rhinovirus; conditions: Human rhinovirus sp., HRV85, HeLa Rh, Hela Rh cells; read-out: hRV-85 EC50
hRV-42 = experiment: Rhinovirus type 42 antiviral assay in Hela Rh cells, MTS readout; format: cell-based, Human rhinovirus; conditions: Human rhinovirus sp., HRV42, HeLa Rh, Hela Rh cells; read-out: hRV-42 EC50
hRV-45 = experiment: Rhinovirus type 45 antiviral assay in Hela Rh cells, MTS readout; format: cell-based, Human rhinovirus; conditions: Human rhinovirus sp., HRV45, HeLa Rh, Hela Rh cells; read-out: hRV-45 EC50
hRV-86 = experiment: Rhinovirus type 86 antiviral assay in Hela Rh cells, MTS readout; format: cell-based, Human rhinovirus; conditions: Human rhinovirus sp., HRV86, HeLa Rh, Hela Rh cells; read-out: hRV-86 EC50
in vitro [6] = conditions: human
HIV-1 strain IIIB = experiment: Inhibition of replication of HIV-1 (IIIB strain) in MT-4 cells, MTT assay; format: cell-based; conditions: Human immunodeficiency virus 1, IIIB, MT4, 120 h; MT-4 cells, MTT assay, five days after infection, 50% protection from cytopathic effect; read-out: EC50 (μM) HIV-1 (IIIB)
HIV-2 strain (ROD) = experiment: Inhibition of replication of HIV-2 (ROD strain) in MT-4 cells, MTT assay; format: cell-based; conditions: Human immunodeficiency virus 2, MT4, 120 h; MT-4 cells, MTT assay, five days after infection, 50% protection from cytopathic effect; read-out: EC50 (μM) HIV-2 (ROD)

Row | SMILES | EC50 (poliovirus (PV type 3); HeLa) [µg/mL] | EC50 (poliovirus (PV type 3); Vero) [µg/mL] | EC50 (poliovirus (PV type 1); HeLa) [µg/mL] | EC50 (poliovirus (PV type 1); Vero) [µg/mL] | CC50 (in vitro [1]) [µg/mL] | CC50 (in vitro [2]) [µg/mL] | CC50 at 72 h [3] [µM] | EC50 [4] [µM] | EC50 (poliovirus (PV type 2); HeLa) [µg/mL] | EC50 (poliovirus (PV type 2); Vero) [µg/mL] | CC50 [5] [µg/mL] | EC50 (hRV-41) [µg/mL] | EC50 (hRV-72) [µg/mL] | EC50 (hRV-15) [µg/mL] | EC50 (hRV-14) [µg/mL] | EC50 (hRV-70) [µg/mL] | EC50 (hRV-39) [µg/mL] | EC50 (hRV-63) [µg/mL] | EC50 (hRV-29) [µg/mL] | EC50 (hRV-9) [µg/mL] | other results
1 | Nc1nc(N2CCN(C(=O)COc3ccc(Cl)cc3)CC2)c2nc(CCc3ccccc3)oc2n1 [Example 189, 5-amino-2-(2-phenylethyl)-7-[4-(4-chlorophenoxyacetyl)piperazin-1-yl]oxazolo[5,4-d]pyrimidine] | > 50 | 1.19 (≈ 2.41 µM) | 1.14 (≈ 2.31 µM) | 0.86 (≈ 1.74 µM) | > 50 | > 150 | 40.5 | 20.6 | 1.15 (≈ 2.33 µM) | 0.4 (≈ 0.811 µM) |  |  |  |  |  |  |  |  |  |  | HCV-1a Replicon Selectivity Index [4]: 2.0
2 | Cc1ccc(-c2nc3c(N4CCN(C(=O)COc5ccc(Cl)cc5)CC4)nc(N)nc3s2)cc1 [Example 295, 1-(4-(5-amino-2-p-tolylthiazolo[5,4-d]pyrimidin-7-yl)piperazin-1-yl)-2-(4-chlorophenoxy)ethanone] |  |  |  |  |  |  |  |  |  |  | > 50 |  |  |  |  |  |  |  |  |  | 
3 | COCc1nc2c(N3CCN(C(=O)COc4ccc(Cl)cc4)CC3)nc(N)nc2o1 [Example 186, 5-amino-7-[4-(4-chlorophenoxyacetyl)piperazin-1-yl]-2-methoxylmethyloxazolo[5,4-d]pyrimidine] | 3.21 (≈ 7.42 µM) | 10.7 (≈ 24.7 µM) | 3.16 (≈ 7.3 µM) | 1.07 (≈ 2.47 µM) | > 50 | 95.2 (≈ 220 µM) | > 44.4 | > 44.4 | 9.42 (≈ 21.8 µM) | 2.96 (≈ 6.84 µM) |  |  |  |  |  |  |  |  |  |  | 
4 | COc1ccc(OCC(=O)N2CCN(c3nc(N)nc4sc(-c5ccc(C)cc5)nc34)CC2)cc1 [Example 294, 1-(4-(5-amino-2-p-tolylthiazolo[5,4-d]pyrimidin-7-yl)piperazin-1-yl)-2-(4-methoxyphenoxy)ethanone] |  |  |  |  |  |  |  |  |  |  | > 50 | 0.43 (≈ 0.876 µM) | 20.6 (≈ 41.9 µM) | 1.82 (≈ 3.71 µM) | 29.1 (≈ 59.4 µM) | 5.26 (≈ 10.7 µM) | < 0.02 | < 0.39 | < 0.02 | 0.02 (≈ 0.0408 µM) | EC50 (hRV-2): < 0.02 µg/mL; EC50 (hRV-85): < 0.39 µg/mL; EC50 (hRV-42): 0.63 µg/mL (≈ 1.28 µM); EC50 (hRV-45): < 0.39 µg/mL
5 | CCCCCc1nc2c(N3CCN(C(=O)COc4ccc(Cl)cc4)CC3)nc(N)nc2s1 [Example 297, 1-(4-(5-amino-2-pentylthiazolo[5,4-d]pyrimidin-7-yl)piperazin-1-yl)-2-(4-chlorophenoxy)ethanone] |  |  |  |  |  |  |  |  |  |  | > 50 | 1.06 (≈ 2.23 µM) | 2.46 (≈ 5.18 µM) | 0.38 (≈ 0.8 µM) | 0.4 (≈ 0.842 µM) | 4.31 (≈ 9.07 µM) | 0.08 (≈ 0.168 µM) | 0.53 (≈ 1.12 µM) | 0.13 (≈ 0.274 µM) | 0.14 (≈ 0.295 µM) | EC50 (hRV-86): 2.42 µg/mL (≈ 5.09 µM); EC50 (hRV-85): 1.01 µg/mL (≈ 2.13 µM); EC50 (hRV-42): 4.45 µg/mL (≈ 9.37 µM); EC50 (hRV-45): 2.29 µg/mL (≈ 4.82 µM)
6 | COc1ccc(OCC(=O)N2CCN(c3nc(N)nc4sc(Cc5ccc(F)cc5)nc34)CC2)cc1 [Example 230, 1-(4-(5-amino-2-(4-fluorobenzyl)thiazolo[5,4-d]pyrimidin-7-yl)piperazin-1-yl)-2-(4-methoxyphenoxy)ethanone] |  |  |  |  |  |  |  |  |  |  | > 50 | 0.58 (≈ 1.14 µM) | 8.55 (≈ 16.8 µM) | 0.38 (≈ 0.747 µM) | 0.39 (≈ 0.767 µM) | 2.37 (≈ 4.66 µM) | 0.04 (≈ 0.0787 µM) | 0.54 (≈ 1.06 µM) | 0.04 (≈ 0.0787 µM) | 0.09 (≈ 0.177 µM) | EC50 (hRV-86): 2.36 µg/mL (≈ 4.64 µM); EC50 (hRV-85): 0.61 µg/mL (≈ 1.2 µM); EC50 (hRV-42): < 0.39 µg/mL; EC50 (hRV-45): 1.13 µg/mL (≈ 2.22 µM)
7 | Nc1nc(N2CCN(C(=O)COc3ccc(Cl)cc3)CC2)c2nc(-c3ccc(F)cc3)[nH]c2n1 [Example 389, 1-(4-(2-amino-8-(4-fluorophenyl)-9H-purin-6-yl)piperazin-1-yl)-2-(4-chlorophenoxy)ethanone] | 37.6 (≈ 78 µM) | > 50 | > 16.7 | > 50 | > 50 | > 150 | > 44.4 | > 44.4 | 16.7 (≈ 34.6 µM) | ≥ 50 |  |  |  |  |  |  |  |  |  |  | 
8 | Cc1ccc(CCc2nc3c(N4CCN(C(=O)COc5ccc(Cl)cc5)CC4)nc(N)nc3s2)cc1 [Example 260, 1-(4-(5-amino-2-(4-methylphenethyl)thiazolo[5,4-d]pyrimidin-7-yl)piperazin-1-yl)-2-(4-chlorophenoxy)ethanone] |  |  |  |  |  |  |  |  |  |  | > 50 | > 50 | > 50 | > 50 | > 50 | > 50 | 13 (≈ 24.8 µM) | 27.9 (≈ 53.3 µM) | > 50 | > 50 | EC50 (hRV-86): > 50 µg/mL; EC50 (hRV-85): 1.35 µg/mL (≈ 2.58 µM); EC50 (hRV-42): > 50 µg/mL; EC50 (hRV-45): 2.46 µg/mL (≈ 4.7 µM)
9 | Cc1cccc(NC(=O)N2CCN(c3nc(N)nc4sc(-c5ccc(F)cc5)cc34)CC2)c1 [Example 359, 4-(2-amino-6-(4-fluorophenyl)thieno[2,3-d]pyrimidin-4-yl)-N-m-tolylpiperazine-1-carboxamide] | 1.07 (≈ 2.31 µM) | 0.73 (≈ 1.58 µM) | 0.94 (≈ 2.03 µM) | 0.43 (≈ 0.93 µM) | > 50 | > 150 |  |  | 0.41 (≈ 0.886 µM) | 0.21 (≈ 0.454 µM) |  |  |  |  |  |  |  |  |  |  | CC50 (in vitro [6]): 140 µM; EC50 (HIV-1 strain IIIB): 6.18 µM; EC50 (HIV-2 strain (ROD)): 10.4 µM
10 | COc1ccc(OCC(=O)N2CCN(c3nc(N)nc4sc(CCc5ccc(C)cc5)nc34)CC2)cc1 [Example 259, 1-(4-(5-amino-2-(4-methylphenethyl)thiazolo[5,4-d]pyrimidin-7-yl)piperazin-1-yl)-2-(4-methoxyphenoxy)ethanone] |  |  |  |  |  |  |  |  |  |  | > 50 | > 50 | > 50 | > 50 | > 50 | > 50 | 0.32 (≈ 0.617 µM) | 18.3 (≈ 35.3 µM) | 0.41 (≈ 0.791 µM) | 0.35 (≈ 0.675 µM) | EC50 (hRV-2): 0.48 µg/mL (≈ 0.925 µM); EC50 (hRV-85): 1.52 µg/mL (≈ 2.93 µM); EC50 (hRV-42): > 50 µg/mL; EC50 (hRV-45): 2.56 µg/mL (≈ 4.94 µM)
11 | Nc1nc(N2CCN(C(=O)COc3ccc(Cl)cc3)CC2)c2nc(C3CCCCC3)oc2n1 [Example 187, 5-amino-2-cyclohexyl-7-[4-(4-chlorophenoxyacetyl)piperazin-1-yl]oxazolo[5,4-d]pyrimidine] | > 50 | > 50 | > 50 | > 50 | > 50 | 118 (≈ 250 µM) | 24.3 | 19 | > 50 | ≥ 50 |  |  |  |  |  |  |  |  |  |  | HCV-1a Replicon Selectivity Index [4]: 1.3
12 | Nc1nc(N2CCN(C(=O)COc3ccc(Cl)cc3)CC2)c2nc(CCc3ccc(F)cc3)sc2n1 [Example 49, 1-(4-(5-amino-2-(4-fluorophenethyl)-thiazolo[5,4-d]pyrimidin-7-yl)piperazin-1-yl)-2-(4-chlorophenoxy)ethanone] | > 50 | 1.17 (≈ 2.22 µM) | 0.13 (≈ 0.247 µM) | 0.13 (≈ 0.247 µM) | > 50 | 101 (≈ 192 µM) | > 44.4 | 42.1 | 0.13 (≈ 0.247 µM) | 0.21 (≈ 0.398 µM) |  |  |  |  |  |  |  |  |  |  | CC50 (in vitro [6]): > 50 µM; EC50 (HIV-1 strain IIIB): 1.13 µM; EC50 (HIV-2 strain (ROD)): > 7.06 µM; HCV-1a Replicon Selectivity Index [4]: >1.1
